# Laboratory results taken from PMC11542593, “Vascular endothelial growth factor receptor 2 as a potential host target for the inhibition of enterovirus replication” (Journal of Virology, 2024).
# Counter-ions that a name gives are not always drawn.
# Legend:
# [1] = CellTiter-Glo luminescent cell viability assay (cytotoxicity); settings: human
# Procedure: Fig. S1. (A) RD cells were treated with the indicated concentrations of inhibitors and incubated at 37°C for 24 h. CellTiter‐Glo® luminescent cell viability assay was used to measure the CC50 of selected inhibitors. […] (B) RD cells treated with the selected inhibitors (10 μM) were inoculated with EV-A71 at an MOI of 0.01. At 48 hpi, cells were harvested to detect the expression level of VP1 by western blotting.
# EV-A71 [2] = experiment: Viral load reduction assay in RD cells (RT-qPCR, TCID50, VP1 Western blot); assay type: cell-based, Human enterovirus A71; settings: for EV-A71 viral load and viral titer, dose dependence: indicated noncytotoxic concentrations, MOI 0.1, 24 h; for EV-A71 viral load and viral titer in cell lysates and supernatant: 10 μM, MOI 0.01, 24 h
# Procedure: Detection of cellular mRNA expression and viral load was performed as described previously ([24]). In brief, the infected or mock-infected cells were lysed and applied to total RNA extraction by using the MiniBEST Universal RNA Extraction Kit (TaKaRa, Code No.9767). Viral RNA in the supernatant was extracted with the MiniBEST Viral RNA Extraction Kit (TaKaRa, Code No.9766). Reverse transcription was performed using the PrimeScript RT reagent Kit (TaKaRa, Code No.PR037A) with an oligo (dT) primer. The resultant cDNAs were used for qPCR assay with the Light Cycler 480 SYBR Green I Master Mix (Roche) to measure the mRNA expression level of cellular genes or viral load in supernatants. The relative viral gene copy was determined by RT-qPCR, using GAPDH as an internal reference.
# The viral titer in the indicated samples was determined by TCID50 assay as described previously ([25]). Briefly, serially diluted samples from 10^−1 to 10^−8 in DMEM were inoculated to RD cells, BGMK cells, or MRC-5 in 96‐well plates. The cells were then incubated for 2 to 3 days at 37°C. TCID50 was calculated by counting the wells with cytopathic effect in infected cells using the Reed–Muench method.
# (§1) Western blot analysis was performed as described previously ([26]). In brief, the indicated cell samples were lysed in RIPA buffer supplemented with protease inhibitors (Thermo Fisher Scientific, 78430). The cell lysates were then separated in 10% SDS-PAGE and transferred to a 0.45-µm nitrocellulose membrane. After blocking, the membrane was incubated with an against VP1 antibody (GeneTex, GTX132339), VEGFR1 antibody (Abcam, ab32152), VEGFR2 antibody (Abcam, ab134191), phosphorylated VEGFR2 antibody (Tyr951) (CST 4991), VEGFR3 antibody (Beyotime, AF6918), Akt antibody (CST 4685), phosphorylated Akt antibody (CST 4060), or GAPDH antibody (GeneTex, GTX627408) diluted 1:5,000 in primary antibody dilution buffer overnight at 4°C, followed by corresponding secondary staining. The blots were visualized by western horseradish peroxidase substrate and imaged with Gel Doc XR+.
# The results represent cell viability in the EV-A71-infected RD cells or 2D human intestinal organoids treated with DMSO (Negative control), Pirodavir (Positive control), or indicated VEGFR inhibitor (10 µM) relative to those in mock-infected RD cells or 2D human intestinal organoids. […] Significant inhibition of EV-A71 infection was found for both cell lysate (left) and supernatant (right) using RT-qPCR analysis. The results represent the viral load in the cells treated with indicated inhibitors relative to that in DMSO-treated cells. (C) Viral titer was also determined for inhibitor-treated samples in TCID50 assays. […] (D) Representative images of immunofluorescence assay for selected inhibitors using Rabbit anti‐VP1 antibody (green). Nuclei are counterstained with DAPI (blue). Scale bar, 50 µm.
# Nuclei are counterstained with DAPI (blue). Scale bar, 50 µm.
# Fig. S2. […] The results represent the viral load in the cells treated with indicated concentration of VEGFR inhibitors relative to that in DMSO-treated cells. Viral titer was also determined for samples treated with indicated concentrations of VEGFR inhibitors in TCID50 assays.
# (§2) Fig. S7. Viral reduction in RD cells with Src inhibitor treatment. […] Significant inhibition of EV-A71 infection was found for both cell lysate (left) and supernatant (middle) using RT-qPCR analysis. The results represent the viral load in the cells treated with Dasatinib relative to that in DMSO-treated cells. Viral titer was also determined for inhibitor-treated samples in TCID50 assays (right). […] (C) VP1 protein levels were measured for samples treated with DMSO or Dasatinib using western blotting.
# Fig. S8. Viral reduction in RD cells with Akt inhibitor treatment. […] Significant inhibition of EV-A71 infection was found for both cell lysate (left) and supernatant (middle) using RT-qPCR analysis. […]
# EV-A71 [3] = experiment: Cytopathic effect (CPE) inhibition assay in RD cells; assay type: cell-based, Human enterovirus A71; settings: EV-A71, RD cells; for EC50: Enterovirus A, EVA71, read-out: EC50, compound concentration required to achieve 50% protection from virus-induced cytopathogenicity
# Akt phosphorylation = experiment: Western blot of phosphorylated Akt and total Akt in RD cells; assay type: cell-based; settings: total Akt levels unaltered
# Procedure: as §1
# as §2, with “S8.” for “S7.”, “Akt” for “Src”, “MK-2206” for “Dasatinib”, “The levels of VP1, phosphorylated Akt and total Akt” for “VP1”, “protein” for “protein levels”
# Fig. S9. […] (A) RD cells were infected with EV-A71 at an MOI of 1, and cell lysates were collected at the indicated times. Western blotting assays were then performed to assess the levels of phosphorylated Akt and total Akt. (B)The plasmids pVEGFR2 or pEmpty vector were transfected into RD cells. At the indicated times post-transfection, cells were harvested to detect the expression levels of phosphorylated Akt and total Akt by western blotting. […] Western blotting assays were then performed to assess the levels of phosphorylated Akt and total Akt. […] At 1 hpi, cells were harvested to detect the expression levels of phosphorylated Akt and total Akt by western blotting. […]
EC50 (EV-A71 [3]) [µM],SMILES,CC50 at 24 h ([1]; RD cells) [µM],"EV-A71 viral load and viral titer, dose dependence (EV-A71 [2])",CC50 at 24 h [1] [µM],"SI (selectivity index), ratio CC50/EC50 (EV-A71 [3])",EV-A71 viral load and viral titer in cell lysates and supernatant (EV-A71 [2]),EV-A71 structural protein VP1 expression (Western blot) (EV-A71 [2]; vs DMSO),Akt phosphorylation following EV-A71 infection (Akt phosphorylation)
–,CNC(=O)c1ccccc1Sc1ccc2c(/C=C/c3ccccn3)n[nH]c2c1 [Axitinib],104 ± 17.6,dose-dependent inhibition,–,–,–,–,–
–,Cc1nc(Nc2ncc(C(=O)Nc3c(C)cccc3Cl)s2)cc(N2CCN(CCO)CC2)n1 [Dasatinib],–,–,–,–,significantly reduced,markedly decreased,–
–,"NC1(c2ccc(-c3nc4ccn5c(=O)[nH]nc5c4cc3-c3ccccc3)cc2)CCC1 [MK-2206, MK-2206 dihydrochloride]",–,–,–,–,significantly suppressed,–,significantly inhibited Akt phosphorylation
0.44 ± 0.08,CCOC(=O)c1ccc(OCCC2CCN(c3ccc(C)nn3)CC2)cc1 [Pirodavir],–,–,52.9 ± 1.25,120.14,–,–,–
1.73 ± 0.18,Cc1[nH]c(/C=C2\C(=O)Nc3ccc(F)cc32)c(C)c1C(=O)NC[C@H](O)CN1CCOCC1 [SU14813],26.4 ± 6.09,dose-dependent inhibition,–,15.23,–,–,–

SMILES,EC50 (EV-A71 [3]) [µM],CC50 at 24 h ([1]; RD cells) [µM],"EV-A71 viral load and viral titer, dose dependence (EV-A71 [2])",CC50 at 24 h [1] [µM],"SI (selectivity index), ratio CC50/EC50 (EV-A71 [3])",EV-A71 viral load and viral titer in cell lysates and supernatant (EV-A71 [2]),EV-A71 structural protein VP1 expression (Western blot) (EV-A71 [2]; vs DMSO),Akt phosphorylation following EV-A71 infection (Akt phosphorylation)
Cc1cc2c(F)c(Oc3ncnn4cc(OC[C@@H](C)O)c(C)c34)ccc2[nH]1 [Brivanib],1.94 ± 0.33,–,dose-dependent inhibition,41.3 ± 2.83,21.28,–,–,–
